Results from US20100184815A1 (priority 2008, published 2010).
Where two headings read alike, the source gives them in different places.

How the values were obtained:
[1] = tested on: pig liver esterase; experiment: Metabolism studies using pig liver esterase; type: in vitro ADME; conditions: 37° C.
Experimental: The esterase-mediated metabolism of these compounds was studied using commercially available pig liver esterase in the presence and absence of human plasma proteins. The disappearance of parent was monitored over the time course of the incubations using a LC-UV detection system.
A stock solution and working stock solution was prepared for each proprietary compound as described for the human liver microsomal incubations. Working solutions of pig liver esterase in potassium phosphate buffer ([…], pH 7.4) and pig liver esterase in human plasma protein were prepared by dissolving pig liver esterase (2.51 mg) in the phosphate buffer or plasma protein solutions, respectively.
A set of three Eppendorf microfuge tubes (1.5 mL) was appropriately labeled. To each tube was added 1.5 mL of phosphate buffer, pig liver esterase in buffer, or pig liver esterase in human plasma protein solution. These solutions were pre-incubated (37° C., 900 rpm) and the reactions were initiated by adding an aliquot (37.5 μL) of the working solution of proprietary compound to each tube. An aliquot (100 μL) from each tube was removed at time 0, 5, 30, 60, and 120 min and added to a tube containing acetonitrile (200 μL) to stop the reaction.
The samples were centrifuged at 14000 g for 15 minutes at 4° C. The supernatant was transferred to clean labeled HPLC injection vials and stored at −80° C. until analyzed. An aliquot of the supernatant (25 μL) was injected onto the LC-UV system for analysis.
Half lives of a sample of test articles is noted in the following table. Half life was determined in the presence or absence of plasma.

[2] = target: T1, Gal-4 hPPARα (Homo sapiens, UniProt Q07869); experiment: Gal4-hPPARα transient transfection reporter assay in Cos cells; type: cell-based; conditions: luciferase reporter, 24 hours with compound, scale 1-5, read-out: Gal-4 hPPAR α EC50 (scaled number)
T1 construct: Plasmids pGal4-hPPARα, pGal4-hPPARγ, pGal4-hPPARδ and pG5-TK-pGL3 were constructed as previously described by Staels, Bart, et al., Nature 1998 Jun; 25
T1 sequence (Q07869 200-468 limits assumed): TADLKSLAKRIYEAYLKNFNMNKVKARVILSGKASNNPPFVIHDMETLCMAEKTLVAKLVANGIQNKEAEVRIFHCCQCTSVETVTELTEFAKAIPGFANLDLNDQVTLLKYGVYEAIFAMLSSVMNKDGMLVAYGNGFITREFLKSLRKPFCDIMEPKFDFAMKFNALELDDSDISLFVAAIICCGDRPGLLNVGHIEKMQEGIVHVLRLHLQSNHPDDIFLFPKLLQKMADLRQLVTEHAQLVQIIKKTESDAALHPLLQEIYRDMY
Method in brief: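 Cos cells transiently co-transfected with Gal4-hPPAR expression plasmid, pG5-TK-pGL3 luciferase reporter and β-galactosidase control, then treated 24 h with increasing compound concentrations in DMEM containing 0.2% FCS. Luciferase normalised to β-galactosidase; EC50 from curve fit, at least three experiments.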

[3] = pig liver esterase in human plasma protein solution, read-out: Pig Liver Esterase (t1/2 min.) (+) Plasma
[4] = pig liver esterase in phosphate buffer pH 7.4, no plasma, read-out: Pig Liver Esterase (t1/2 min.) (−) Plasma

Compound: Cc1ccc(Cn2cc([C@@H](C)OC(=O)c3ccc(SC(C)(C)C(=O)O)cc3)nn2)cc1 [Compound 87, (R)-2-methyl-2-(4-((1-(1-(4-methylbenzyl)-1H-1,2,3-triazol-4-yl)ethoxy)carbonyl)phenylthio)propanoic acid]
- half-life at 4.9 µM [1, 3]: 83 min
- half-life at 4.9 µM [1, 4]: 19 min
- EC50 [2]: 1 to 50 nM

Compound: CCCc1nn(Cc2ccc(C(F)(F)F)cc2)cc1COC(=O)c1ccc(SC(C)(C)C(=O)O)cc1 [Compound 12, 2-methyl-2-(4-(((3-propyl-1-(4-(trifluoromethyl)benzyl)-1H-pyrazol-4-yl)methoxy)carbonyl)phenylthio)propanoic acid]
- half-life at 4.9 µM [1, 3]: 61 min
- half-life at 4.9 µM [1, 4]: < 5 min
- EC50 [2]: 51 to 200 nM

Compound: COC(c1ccc(Cn2cc(COC(=O)c3ccc(SC(C)(C)C(=O)O)cc3)nn2)cc1)(C(F)(F)F)C(F)(F)F [Compound 75, 2-(4-(((1-(4-(1,1,1,3,3,3-hexafluoro-2-methoxypropan-2-yl)benzyl)-1H-1,2,3-triazol-4-yl)methoxy)carbonyl)phenylthio)-2-methylpropanoic acid]
- half-life at 4.9 µM [1, 3]: 160 min
- half-life at 4.9 µM [1, 4]: 29 min
- EC50 [2]: 51 to 200 nM

Compound: CC(C)(Sc1ccc(C(=O)OCc2cn(Cc3ccc(C(C)(C)C)cc3)nn2)cc1)C(=O)O [Compound 69, 2-(4-(((1-(4-tert-butylbenzyl)-1H-1,2,3-triazol-4-yl)methoxy)carbonyl)phenylthio)-2-methylpropanoic acid]
- half-life at 4.9 µM [1, 3]: 126 min
- half-life at 4.9 µM [1, 4]: 14 min
- EC50 [2]: 1 to 50 nM

Compound: CC(C)(Sc1ccc(C(=O)OCCc2cn(Cc3ccc(C(F)(F)F)cc3)nn2)cc1)C(=O)O [Compound 91, 2-methyl-2-(4-((2-(1-(4-(trifluoromethyl)benzyl)-1H-1,2,3-triazol-4-yl)ethoxy)carbonyl)phenylthio)propanoic acid]
- half-life at 4.9 µM [1, 3]: > 120 min
- half-life at 4.9 µM [1, 4]: 64 min
- EC50 [2]: 201 to 999 nM
